Experimental data from patent US20180185347A1, “TETRAHYDROCYCLOPENTA[B]INDOLE COMPOUNDS AND PHOSPHODIESTERASE INHIBITORS FOR THE TREATMENT OF THE SIGNS AND SYMPTOMS OF BHP” (Transition Therapeutics (Ireland 2) Limited, priority 2016, published 2018).
Like-named read-outs stand apart in the source and are kept apart here.

What was measured:
[1] = test system: LnCAP cells; experiment: LnCAP gene expression; type: cell-based; details: Homo sapiens
[2] = test system: orchidectomized rats; experiment: Testosterone induced prostate / seminal vesicle growth in delayed ORX rat model; type: in vivo
Excerpt: Orchidectomized (ORX) and sham-operated Wistar male rats were used (orchidectomized at 8 weeks of age and allowed to waste for 4 weeks). […] Rats were randomized and placed into treatment groups (n=6) based on body weight. Route of administration for all groups except testosterone enanthate (TE was given sub-cutaneously) was oral. At the end of 2 weeks of daily rats were euthanized, weighed & tissue harvested. Levator ani, prostates, and seminal vesicles were collected from each animal. Results are plotted as means±SE.

[3] = ORX + TE, 1 mg/kg/d (control group itself)

Row | Structure (SMILES) | EC50 ([1]; read-out: LnCAP Gene Expression EC50 (nM) AR) [nM] | EC50 ([1]; read-out: LnCAP Gene Expression EC50 (nM) CLUSTERIN) [nM] | EC50 ([1]; read-out: LnCAP Gene Expression EC50 (nM) PSA) [nM] | prostate weights, Abs(Dif)-LSD vs ORX + TE control [2, 3] | seminal vesicle wet weights, Abs(Dif)-LSD vs ORX + TE control [2, 3] | prostate weight and seminal vesical weight ([2]; ORX rat, Testosterone 1 mg/k/d alone for 2 weeks)
1 | C[C@]1(O)CC[C@H]2[C@@H]3CCC4=CC(=O)CCC4=C3C=C[C@@]21C [R1881] | 0.035 | 0.37 | 0.034 | – | – | –
2 | CCCCCCC(=O)O[C@H]1CC[C@H]2[C@@H]3CCC4=CC(=O)CC[C@]4(C)[C@H]3CC[C@]12C [TE, Testosterone Enanthate, reference compound] | – | – | – | −0.15 | −0.52 | increase in prostate weight and seminal vesical weight
